Measured values: patent publication US12565522B2, “Micropeptide HMMW and application thereof” (NANJING ANJI BIOTECHNOLOGY CO., LTD., priority 2019, dated 2026)
No end group written: not given here.

Experiments:
Type in all cases: cell-based, human
Conditions in all cases: 24 h
[1] = tested on: SW579 cells of thyroid cancer; experiment: transwell migration test
Protocol: (§1) Inoculate SCC4 cells of head and neck cancer, SW579 cells of thyroid cancer, A549 cells of lung cancer, TE13 cells of esophageal squamous cell carcinoma, MGC803 cells of stomach cancer, MDA-MB-231 cells of breast cancer, UOK262 cells of kidney cancer, and A431 cells of skin cancer of human to transwell cells, 100 μL per well, and meanwhile add micropeptides HMMW I to IX at different doses to every cell. Add 0.6 mL of complete medium containing 10% FBS to the transwell cells to stimulate cell migration, and culture in 5% CO2 at 37 DEG C. for 24 h. Discard the medium in the wells, fix with 90% alcohol at room temperature for 30 min, stain with 0.1% crystal violet at room temperature for 10 min, rinse with clear water, gently wipe off the non-migrated cells in the upper layer with a cotton swab, observe under a microscope and select four fields of view to take pictures and count. Calculate the migration inhibition rate (MIR) of the cells according to the following formula: […]
(§2) The test was repeated independently three times. Mean±SD was calculated based on the test results. Statistical t test was done. Here, “the test was repeated independently three times” means that every dose of any type of cells was tested repeatedly three times, and then the above formula was used to calculate the number of migrated cells (Mean±SD). Value P was used to express statistical difference. The statistical significance of the results is a method for estimating how true the results are (the totality can be represented), *P<0.05 means significant difference, and **P<0.01 means very significant difference.

[2] = tested on: UOK262 cells of kidney cancer; experiment: transwell migration test
Protocol: as §1, §2

[3] = tested on: A431 cells of skin cancer; experiment: transwell migration test
Protocol: as §1, §2

[4] = tested on: A549 cells of lung cancer; experiment: transwell migration test
Protocol: as §1, §2

[5] = tested on: SCC4 cells of head and neck cancer; experiment: transwell migration test
Protocol: as §1, §2

[6] = tested on: MGC803 cells of stomach cancer; experiment: transwell migration test
Protocol: as §1, §2

[7] = tested on: TE13 cells of esophageal squamous cell carcinoma; experiment: transwell migration test
Protocol: as §1, §2

[8] = tested on: MDA-MB-231 cells of breast cancer; experiment: transwell migration test
Protocol: as §1, §2

[9] = tested on: SW579 cells of thyroid cancer; experiment: Matrigel transwell invasion test
Protocol: (§3) Dilute 10 mg/mL Matrigel with culture medium at 1:3, spread it on membranes of transwell cells and dry it in the air at room temperature. Use trypsin to digest and collect SCC4 cells of head and neck cancer, SW579 cells of thyroid cancer, A549 cells of lung cancer, TE13 cells of esophageal squamous cell carcinoma, MGC803 cells of stomach cancer, MDA-MB-231 cells of breast cancer, UOK262 cells of kidney cancer, and A431 cells of skin cancer of human, which were cultured to the logarithmic phase, wash with PBS twice and re-suspend with a blank culture medium. Adjust cell concentration to 1×10^5 cells/mL. Inoculate the cells to transwell cells, 100 μL per well, and meanwhile add micropeptides HMMW I to IX at different doses to every cell. Add 0.6 mL of complete medium containing 10% FBS to the transwell cells to stimulate cell invasion, and culture in 5% CO2 at 37 DEG C. for 24 h. Discard the medium in the wells, fix with 90% alcohol at room temperature for 30 min, stain with 0.1% crystal violet at room temperature for 10 min, rinse with clear water, gently wipe off the non-invaded cells in the upper layer with a cotton swab, observe under a microscope and select four fields of view to take pictures and count. Calculate the invasion inhibition rate (IIR) of the cells according to the following formula:
(§4) [formula] where Ntest is the number of invaded cells in the test groups (the groups at a dose of 1, 4 or 16 μM in the table), Ncontrol is the number of invaded cells in the blank control groups (the groups at a dose of 0 μM in the table). The test was repeated independently three times. Mean±SD was calculated based on the test results. Statistical t test was done. Value P was used to express statistical difference. The statistical significance of the results is a method for estimating how true the results are (the totality can be represented), *P<0.05 means significant difference, and **P<0.01 means very significant difference.

[10] = tested on: UOK262 cells of kidney cancer; experiment: Matrigel transwell invasion test
Protocol: as §3, §4

[11] = tested on: A431 cells of skin cancer; experiment: Matrigel transwell invasion test
Protocol: as §3, §4

[12] = tested on: A549 cells of lung cancer; experiment: Matrigel transwell invasion test
Protocol: as §3, §4

[13] = tested on: SCC4 cells of head and neck cancer; experiment: Matrigel transwell invasion test
Protocol: as §3, §4

[14] = tested on: MGC803 cells of stomach cancer; experiment: Matrigel transwell invasion test
Protocol: as §3, §4

[15] = tested on: TE13 cells of esophageal squamous cell carcinoma; experiment: Matrigel transwell invasion test
Protocol: as §3, §4

[16] = tested on: MDA-MB-231 cells of breast cancer; experiment: Matrigel transwell invasion test
Protocol: as §3, §4

## MERAGVPGFSPRRSSVEAKMQSTSCSVRKSSTVTAWPAVVLLLHTSKDDEE-OH [HMMW-II]
[1]; dose 1 μM
  migration inhibition rate: 18.80%
[1]; dose 4 μM
  migration inhibition rate: 50.13%
[1]; dose 16 μM
  migration inhibition rate: 71.92%
[2]; dose 1 μM
  migration inhibition rate: 16.29%
[2]; dose 4 μM
  migration inhibition rate: 41.28%
[2]; dose 16 μM
  migration inhibition rate: 70.43%
[3]; dose 1 μM
  migration inhibition rate: 31.14%
[3]; dose 4 μM
  migration inhibition rate: 53.12%
[3]; dose 16 μM
  migration inhibition rate: 71.12%
[4]; dose 1 μM
  migration inhibition rate: 34.01%
[4]; dose 4 μM
  migration inhibition rate: 52.91%
[4]; dose 16 μM
  migration inhibition rate: 72.36%
[5]; dose 1 μM
  migration inhibition rate: 18.81%
[5]; dose 4 μM
  migration inhibition rate: 43.67%
[5]; dose 16 μM
  migration inhibition rate: 75.04%
[6]; dose 1 μM
  migration inhibition rate: 25.64%
[6]; dose 4 μM
  migration inhibition rate: 52.41%
[6]; dose 16 μM
  migration inhibition rate: 73.82%
[7]; dose 1 μM
  migration inhibition rate: 22.74%
[7]; dose 4 μM
  migration inhibition rate: 40.23%
[7]; dose 16 μM
  migration inhibition rate: 65.31%
[8]; dose 1 μM
  migration inhibition rate: 27.07%
[8]; dose 4 μM
  migration inhibition rate: 51.24%
[8]; dose 16 μM
  migration inhibition rate: 73.18%
[9]; dose 1 μM
  invasion inhibition rate: 22.13%
[9]; dose 4 μM
  invasion inhibition rate: 45.78%
[9]; dose 16 μM
  invasion inhibition rate: 66.73%
[10]; dose 1 μM
  invasion inhibition rate: 34.70%
[10]; dose 4 μM
  invasion inhibition rate: 54.16%
[10]; dose 16 μM
  invasion inhibition rate: 65.64%
[11]; dose 1 μM
  invasion inhibition rate: 31.71%
[11]; dose 4 μM
  invasion inhibition rate: 53.41%
[11]; dose 16 μM
  invasion inhibition rate: 68.25%
[12]; dose 1 μM
  invasion inhibition rate: 33.25%
[12]; dose 4 μM
  invasion inhibition rate: 55.12%
[12]; dose 16 μM
  invasion inhibition rate: 65.09%
[13]; dose 1 μM
  invasion inhibition rate: 21.72%
[13]; dose 4 μM
  invasion inhibition rate: 45.14%
[13]; dose 16 μM
  invasion inhibition rate: 73.80%
[14]; dose 1 μM
  invasion inhibition rate: 27.52%
[14]; dose 4 μM
  invasion inhibition rate: 51.04%
[14]; dose 16 μM
  invasion inhibition rate: 66.51%
[15]; dose 1 μM
  invasion inhibition rate: 21.41%
[15]; dose 4 μM
  invasion inhibition rate: 43.46%
[15]; dose 16 μM
  invasion inhibition rate: 64.56%
[16]; dose 1 μM
  invasion inhibition rate: 25.93%
[16]; dose 4 μM
  invasion inhibition rate: 47.75%
[16]; dose 16 μM
  invasion inhibition rate: 71.52%

## MERAGVPGFSPRRSSVEAKMQSTSCSVRKSSTVTAWPAVVLLLSWGKDDEE-OH [HMMW-IV]
[1]; dose 1 μM
  migration inhibition rate: 18.81%
[1]; dose 4 μM
  migration inhibition rate: 50.03%
[1]; dose 16 μM
  migration inhibition rate: 71.91%
[2]; dose 1 μM
  migration inhibition rate: 16.32%
[2]; dose 4 μM
  migration inhibition rate: 41.38%
[2]; dose 16 μM
  migration inhibition rate: 70.47%
[3]; dose 1 μM
  migration inhibition rate: 32.19%
[3]; dose 4 μM
  migration inhibition rate: 54.17%
[3]; dose 16 μM
  migration inhibition rate: 71.24%
[4]; dose 1 μM
  migration inhibition rate: 33.00%
[4]; dose 4 μM
  migration inhibition rate: 52.91%
[4]; dose 16 μM
  migration inhibition rate: 71.46%
[5]; dose 1 μM
  migration inhibition rate: 16.84%
[5]; dose 4 μM
  migration inhibition rate: 43.91%
[5]; dose 16 μM
  migration inhibition rate: 75.04%
[6]; dose 1 μM
  migration inhibition rate: 25.60%
[6]; dose 4 μM
  migration inhibition rate: 52.45%
[6]; dose 16 μM
  migration inhibition rate: 74.80%
[7]; dose 1 μM
  migration inhibition rate: 22.76%
[7]; dose 4 μM
  migration inhibition rate: 41.29%
[7]; dose 16 μM
  migration inhibition rate: 65.32%
[8]; dose 1 μM
  migration inhibition rate: 29.06%
[8]; dose 4 μM
  migration inhibition rate: 51.34%
[8]; dose 16 μM
  migration inhibition rate: 73.38%
[9]; dose 1 μM
  invasion inhibition rate: 23.10%
[9]; dose 4 μM
  invasion inhibition rate: 46.71%
[9]; dose 16 μM
  invasion inhibition rate: 67.72%
[10]; dose 1 μM
  invasion inhibition rate: 38.40%
[10]; dose 4 μM
  invasion inhibition rate: 58.36%
[10]; dose 16 μM
  invasion inhibition rate: 67.62%
[11]; dose 1 μM
  invasion inhibition rate: 36.25%
[11]; dose 4 μM
  invasion inhibition rate: 57.19%
[11]; dose 16 μM
  invasion inhibition rate: 71.36%
[12]; dose 1 μM
  invasion inhibition rate: 34.22%
[12]; dose 4 μM
  invasion inhibition rate: 56.11%
[12]; dose 16 μM
  invasion inhibition rate: 65.24%
[13]; dose 1 μM
  invasion inhibition rate: 22.79%
[13]; dose 4 μM
  invasion inhibition rate: 47.34%
[13]; dose 16 μM
  invasion inhibition rate: 74.40%
[14]; dose 1 μM
  invasion inhibition rate: 23.50%
[14]; dose 4 μM
  invasion inhibition rate: 54.21%
[14]; dose 16 μM
  invasion inhibition rate: 63.49%
[15]; dose 1 μM
  invasion inhibition rate: 22.40%
[15]; dose 4 μM
  invasion inhibition rate: 42.42%
[15]; dose 16 μM
  invasion inhibition rate: 67.51%
[16]; dose 1 μM
  invasion inhibition rate: 24.91%
[16]; dose 4 μM
  invasion inhibition rate: 46.73%
[16]; dose 16 μM
  invasion inhibition rate: 71.64%

## MERAGVPGFSPRRSSVEAKMQSTSCSVRKSSTVTAWPAVVLLLSWGQRDEE-OH [HMMW-VI]
[1]; dose 1 μM
  migration inhibition rate: 19.81%
[1]; dose 4 μM
  migration inhibition rate: 52.03%
[1]; dose 16 μM
  migration inhibition rate: 70.91%
[2]; dose 1 μM
  migration inhibition rate: 17.32%
[2]; dose 4 μM
  migration inhibition rate: 40.38%
[2]; dose 16 μM
  migration inhibition rate: 72.47%
[3]; dose 1 μM
  migration inhibition rate: 33.19%
[3]; dose 4 μM
  migration inhibition rate: 55.17%
[3]; dose 16 μM
  migration inhibition rate: 70.23%
[4]; dose 1 μM
  migration inhibition rate: 32.00%
[4]; dose 4 μM
  migration inhibition rate: 51.90%
[4]; dose 16 μM
  migration inhibition rate: 70.46%
[5]; dose 1 μM
  migration inhibition rate: 16.69%
[5]; dose 4 μM
  migration inhibition rate: 42.81%
[5]; dose 16 μM
  migration inhibition rate: 71.04%
[6]; dose 1 μM
  migration inhibition rate: 26.64%
[6]; dose 4 μM
  migration inhibition rate: 51.45%
[6]; dose 16 μM
  migration inhibition rate: 72.80%
[7]; dose 1 μM
  migration inhibition rate: 21.76%
[7]; dose 4 μM
  migration inhibition rate: 40.21%
[7]; dose 16 μM
  migration inhibition rate: 66.32%
[8]; dose 1 μM
  migration inhibition rate: 27.06%
[8]; dose 4 μM
  migration inhibition rate: 50.34%
[8]; dose 16 μM
  migration inhibition rate: 74.38%
[9]; dose 1 μM
  invasion inhibition rate: 23.29%
[9]; dose 4 μM
  invasion inhibition rate: 46.63%
[9]; dose 16 μM
  invasion inhibition rate: 67.58%
[10]; dose 1 μM
  invasion inhibition rate: 38.15%
[10]; dose 4 μM
  invasion inhibition rate: 58.28%
[10]; dose 16 μM
  invasion inhibition rate: 67.51%
[11]; dose 1 μM
  invasion inhibition rate: 36.83%
[11]; dose 4 μM
  invasion inhibition rate: 57.35%
[11]; dose 16 μM
  invasion inhibition rate: 71.16%
[12]; dose 1 μM
  invasion inhibition rate: 34.15%
[12]; dose 4 μM
  invasion inhibition rate: 56.32%
[12]; dose 16 μM
  invasion inhibition rate: 65.35%
[13]; dose 1 μM
  invasion inhibition rate: 22.83%
[13]; dose 4 μM
  invasion inhibition rate: 47.82%
[13]; dose 16 μM
  invasion inhibition rate: 74.16%
[14]; dose 1 μM
  invasion inhibition rate: 23.42%
[14]; dose 4 μM
  invasion inhibition rate: 54.19%
[14]; dose 16 μM
  invasion inhibition rate: 63.35%
[15]; dose 1 μM
  invasion inhibition rate: 22.25%
[15]; dose 4 μM
  invasion inhibition rate: 42.39%
[15]; dose 16 μM
  invasion inhibition rate: 67.47%
[16]; dose 1 μM
  invasion inhibition rate: 24.83%
[16]; dose 4 μM
  invasion inhibition rate: 46.57%
[16]; dose 16 μM
  invasion inhibition rate: 71.43%
